Experimental data reported in patent publication US20240424115A1, “LONG-ACTING INTERLEUKIN-15 RECEPTOR AGONISTS AND RELATED IMMUNOTHERAPEUTIC COMPOSITIONS AND METHODS” (Nektar Therapeutics, priority 2017, published 2024).

Assays:
[1] = PK (MRT) of long-acting IL-15 receptor agonists (Table 2B); format: in vivo; conditions: species not stated
[2] = Single dose PK study in rats (plasma concentration); format: in vivo; conditions: Sprague Dawley rats, single i.v. 10, 75 and 150 μg/kg
Experimental: Following administration, blood was collected at days 1-7 post administration (with multiple samples collected over the first 24 hours following administration). […]

[3] = Single dose PK study in non-human primates (plasma concentration); format: in vivo; conditions: cynomolgus monkeys
Experimental: Cynomolgus monkeys (n=2, 1 male and 1 female), were administered a single intravenous dose of Conjugate 1 at 10, 50 and 100 μg/kg. IL-15 was administered as a single intravenous dose at 50 μg/kg as a control. Plasma concentration of drug was determined at the indicated time points post injection (0.03, 0.25, 1, 4, 12, 24, 48, 72, 96, 120, 144, 168 hours).

[4] = system: CD4, CD8, and NK cells; test: In vivo IL-15 signaling (STAT5 phosphorylation in lymphocytes) in non-human primates; design: species or system cynomolgus monkeys; conditions: NHP
Experimental: In the study, cynomolgus monkeys (cyno), one female and one male, were each intravenously administered a single dose of Conjugate 2 (0.5 mg/kg). A series of blood samples were taken from each animal both prior to treatment (day-6 and-1) and at multiple intervals following treatment for assessment by flow cytometry of STAT5 phosphorylation in various types of lymphocytes (CD4, CD8, and NK cells). Results are provided in FIGS. 9A (CD4), 9B (CD8), and 9C (NK).
(§1) Cynomolgus monkeys (n=3-4 males), were administered a single intravenous injection of Conjugate 1 at 0.003, 0.01, 0.1 mg/kg or a vehicle control. Blood samples were collected at the indicated time points pre and post dose (−5, −2, 1, 2, 3, 4, 5, 6, 7, 10, 14, 17 days) and subjected to flow cytometric analysis to examine pharmacodynamic effects within lymphocyte populations. Proliferation (% Ki-67) and JAK/STAT signaling (% pSTAT5) for NK cells, CD8 T cells, and CD4 T cells were examined, with the results shown in FIGS. 45A-C and FIGS. 46A-C, respectively.

[5] = system: NK cells, CD8 T cells, CD4 T cells; test: In vivo PD study in non-human primates: lymphocyte cell numbers and proliferation; design: species or system cynomolgus monkeys
Experimental: In the study, cynomolgus monkeys, one female and one male, were administered 500 μg/kg of Conjugate 2 intravenously. A series of blood samples were taken from each animal before treatment (day-6 and -1) and at multiple intervals following single dose treatment for assessment by flow cytometry of lymphocyte cell numbers (NK cells, CD8 T-cells, etc.) and activation.
NK cell counts were determined to assess the ability of exemplary Conjugate 2 to induce sustained NK cell proliferation in non-human primates; results are shown in FIGS. 16A and 16B. NK cells and their proliferation in blood from cynomolgus monkey were identified by flow cytometry. Acquisition and analysis of NK cells (CD45+ CD3− CD16+) and their proliferation status (CD45+CD3−CD16+ Ki67+) were conducted using BD FACS DIVA software. Absolute values for NK cells and proliferating NK cells were used to calculate % Ki67 positivity within the NK population. Pre and post-treatment values were plotted using Prism.
CD8 T cell counts were also determined as illustrated in FIG. 17 for each animal from pre-dose to 14 days post-administration. Specifically, CD8 T cells were defined as CD45+CD3+CD4−CD8+. Blood from the monkeys was also subject to immunophenotyping as previously described. In monkey, CD8 T cells increased in a sustained manner, an effect lasting for at least 10 days. This plot further exemplifies the ability of an exemplary long acting IL-15 receptor agonist, Conjugate 2, to induce proliferation and sustained increases in numbers of CD8 T-cells post-administration.
In monkey, CD8 TEM cells were defined as CD45+CD3+CD4−CD8+CD45Ra−CD197− and CD8 Tcm were defined as CD45+CD3+CD4−CD8+CD45Ra−CD197+. Immunophenotyping was conducted by flow cytometry with sample acquisition on DIVA software and data analysis on Flowjo software. Graphs were plotted using Prism. […] The figures indicate that both CD8 effector and central memory T cell populations proliferate in response to exemplary Conjugate 2.
In this study, cynomolgus monkeys (cyno), one female and one male, were each intravenously administered a single dose of Conjugate 1 (0.1 mg/kg). A series of blood samples were taken from each animal over a 14-day time course and subjected to flow cytometry analysis of various lymphocytes (CD8 T cells, Ki-67 percent positivity within total CD8, CD8 central memory T cells (TCM) and CD8 effector memory T cells (Tem), NK cells and Ki-67 percent positivity of NK cells).
as §1
In cynomolgus monkey, CD8 naïve and memory subpopulations were defined by CD45Ra, CD197 and CD95. […] Within the CD8 Tem, […] and Tscm populations, Conjugate 1 induced robust % Ki-67 expression in a dose dependent manner with detectable increases in proliferation marker positivity starting as early as day 2, reaching a maximum at day 5 and returning to baseline between days 10-14. The Ki-67 expression and kinetics within the CD8 populations support the sustained increase in CD8 T cell numbers shown in Example 27 and FIGS. 47A-D.

[6] = system: CT-26 cells; test: CT-26 lung metastasis model; conditions: for lung nodule inhibition: Example 19, one week apart
Experimental: At day 0, 6-8 week-old female Balb/c mice were inoculated with 1×10^5 mouse CT-26 cells by tail vein injection. On day 1, post 24 h of CT-26 cells being administered, mice were divided into ten groups. […] Each group was assigned one intervention as follows: vehicle, phosphate buffered saline (Group A); native IL-15 alone (Group B); Conjugate 2 at a dose of 0.03 mg/kg (Group C); Conjugate 2 at a dose of 0.1 mg/kg (Group D); Conjugate 2 at a dose of 0.3 mg/kg (Group E); Conjugate 2 at a dose of 1.0 mg/kg (Group F); Conjugate 2 at a dose of 3.0 mg/kg (Group G); for Conjugate 1: vehicle, phosphate buffered saline (Group H); Conjugate 1 at a dose of 0.03 mg/kg (Group I) and Conjugate 1 at a dose of 0.3 mg/kg (Group J). Animals were dosed at days 1, 5, and 10.
Post 13 days from the date of CT-26 tumor cells administration, mice were anesthetized, and blood and spleen cells were collected for further analysis of immunophenotype markers, while lungs were fixed for 24-48 h in Bouins solution containing picric acid and formaldehyde.
The number of lung tumor nodules were counted under a dissection per each lung and mean of lung nodules for each group was determined. The statistical significance was also obtained between the vehicle group vs intervention groups using unpaired students t test.
Balb/c mice received tail vein injection of 1×10^5 CT-26 colorectal carcinoma cells. The following day, mice (n=9/group) were treated weekly, twice, with Conjugate 1 (0.03 or 0.3 mg/kg) or vehicle control. Five days after the second injection, mice were humanely sacrificed and lung nodules were counted.
CT-26 mice (n=7-11/group) were injected with anti-asialo GM1 to deplete NK cells or two different controls (lgG or PBS), then injected with 1×10^5 CT-26 tumor cells. Mice were then treated with Conjugate 2 at 0.3 mg/kg dosed on days 1, 5 and 10 post tumor cell injection or vehicle control. Mice were sacrificed and lung nodules were counted three days after the last day of treatment.

[7] = cynomolgus monkey, each dose level, vs vehicle

In the case of mono-mPEG-SBA40K-IL-15 [Conjugate 1], the “PK (MRT)” value [1] is reported as 21 h, the half-life [2] is reported as “approximately 18 hours” and the half-life ([3]; single i.v. 100 μg/kg) is reported as “approximately 30 hours”. For the same substance, the “pSTAT5 in CD8 T cells” value ([4]; 0.1 and 0.01 mg/kg) was “dose-dependent increase in pSTAT5”, the “dose level at which increase in % pSTAT5 in NK cells can be detected” value ([4]; single i.v.) was 0.001 mg/kg and the “time NK cell numbers were sustained” value ([5]; NHP, 0.1 and 0.01 mg/kg) was “up to 14 days”. For the same substance, the “CD4 T cell numbers, % Ki-67 and % pSTAT5” value ([5]; NHP, highest dose level 0.1 mg/kg) was “induced a small increase in CD4 T cell numbers, % Ki-67 and % pSTAT5”, the “day of maximal total CD8 T cell numbers” value ([5]; NHP, single i.v.) was ~5 days and the “dose at which % Ki-67 positivity in CD8 T cells is detectable” value ([5]; NHP, single i.v.) was 10 µg/kg. For the same substance, the “dose at which effect on total CD8 cell numbers can be detected” value ([5]; NHP, single i.v.) was 3 µg/kg, the “dose level at which a significant increase in % Ki-67 in NK cells can be detected” value ([5]; NHP, single i.v.) was 1 µg/kg and the “first detectable increase in % Ki-67 in CD8 Tem, Tcm and Tscm” value ([5]; NHP, single i.v.) was 2 days. For the same substance, the “lowest dose level yielding a significant increase in NK cells” value ([5]; NHP, single i.v.) was 10 µg/kg, the “maximum of % Ki-67 in CD8 Tem, Tcm and Tscm” value ([5]; NHP, single i.v.) was 5 days and the “return of % Ki-67 in CD8 Tem, Tcm and Tscm to baseline” value ([5]; NHP, single i.v.) was 10 to 14 days. For the same substance, the “time Ki-67 expression in NK cells can be sustained” value ([5]; NHP, single i.v.) was “up to 14 days”, the “time increase in total CD8 T cells is sustained” value ([5]; NHP, single i.v.) was “over seven” and the “time of maximum NK cell numbers after dosing” value ([5]; NHP, single i.v.) was “five”. For the same substance, the “increase in CD8 T cell numbers” value ([5]; cyno, single i.v. 0.1 mg/kg) was 7-10 X, the “increase in CD8 Tcm numbers” value ([5]; cyno, single i.v. 0.1 mg/kg) was 27-30 X and the “increase in CD8 Tem numbers” value ([5]; cyno, single i.v. 0.1 mg/kg) was 21-33 X. For the same substance, the “increase in NK cells” value ([5]; cyno, single i.v. 0.1 mg/kg) was 9-10 X, the “time increase in CD8 T cell numbers was sustained” value [5, 7] was “at least 10 days” and the “time increase in NK cell numbers was sustained” value [5, 7] was “at least 14 days”. The survival ([6]; 0.3 mg/kg, followed 32 days post tumor cell injection, vs vehicle) was “increased survival significantly”, the “reduction in lung metastases in comparison to vehicle” value ([6]; Example 13, i.v. days 1, 5, 10, dose not stated) was 85% and the lung nodule inhibition ([6]; 0.03 mg/kg dosed twice) was 40%. For the same substance, the lung nodule inhibition ([6]; 0.3 mg/kg dosed twice) was 80%.
In the case of “IL-15: recombinant human IL-15 from E. coli, SEQ ID NO: 1, non-glycosylated, 12.9 kDa; unconjugated comparator”, the “plasma levels following administration” value ([3]; single i.v. 50 μg/kg) is reported as “rapidly cleared from the plasma”.
